According to US9593305B2, “Differentiation of pluripotent stem cells” (Janssen Biotech, Inc., priority 2008, dated 2017):

Test system: H1 human embryonic stem cells
Experiment: Step-wise differentiation, RT-PCR of differentiation markers (Example 17, Table 15)
Format: cell-based
Method: Stock cultures of human embryonic stem cells (H1 human embryonic stem cell line) were maintained in an undifferentiated, pluripotent state on reduced growth factor […]™ (BD Biosciences; Cat #356231)-coated dishes in MEF conditioned medium supplemented with 8 ng/ml bFGF (PeproTech Inc.; Cat #100-18B) with passage on average every four days. Passage was performed by exposing cell cultures to a solution of 1 mg/ml dispase (Invitrogen; Cat #17105-041) for 5 to 7 minutes at 37° C. followed by rinsing the monolayer with MEF conditioned culture medium and gentle scraping to recover cell clusters. Clusters were centrifuged at low speed to collect a cell pellet and remove residual dispase. Cell clusters were split at a 1:3 or 1:4 ratio for routine maintenance culture or a 1:1 ratio for immediate assay. All human ES cell lines were maintained at passage numbers less than 50 and routinely evaluated for normal karyotype and absence of mycoplasma.
Cell clusters were evenly resuspended in MEF conditioned medium supplemented with 8 ng/ml bFGF and plated onto reduced growth factor […]™-coated 24-well, black wall culture plates (Arctic White; Cat #AWLS-303012) in volumes of 0.5 ml/well. Daily feeding was conducted by aspirating spent culture medium from each well and replacing with an equal volume of fresh medium. Plates were maintained at 37° C., 5% CO2 throughout assay.
The assay was initiated by aspirating the culture medium from each well and adding back an aliquot (0.5 ml) of test medium. Test conditions for the first step of differentiation were conducted over a three-day period, feeding daily by aspirating and replacing the medium from each well with fresh test medium. On the first day of assay, 100 ng/ml activin A (PeproTech; Cat #120-14) or 100 ng/ml GDF-8 (R&D Systems, Cat #788-G8) was added to respective assay wells where each growth factor was diluted into RPMI-1640 medium (Invitrogen; Cat #: 22400) with 2% Albumin Bovine Fraction V, Fatty Acid Free (FAF BSA) (MP Biomedicals, Inc; Cat #152401). In some samples, 20 ng/ml Wnt3a (R&D Systems; Cat #1324-WN/CF) was also included. On the second day of assay, 100 ng/mlactivin A or 100 ng/ml GDF-8 was diluted into RPMI-1640 medium supplemented with 2% FAF BSA, omitting Wnt3a from all samples. In some test samples using GDF-8, Wnt3a was replaced with a given concentration of small molecule compound, added only on the first day of definitive endoderm differentiation. […] At the conclusion of the first step of differentiation, cells from some wells were harvested for flow cytometry analysis to evaluate levels of CXCR4, a marker of definitive endoderm formation. Additional wells were harvested for RT-PCR analysis to measure other markers of differentiation.
At the conclusion of the first step of definitive endoderm differentiation, replicate sets of parallel wells from each treatment group were subjected to further step-wise differentiation. It is important to note that after the first differentiation step, all wells undergoing subsequent culture and differentiation received the same treatment. The protocol for this continuing differentiation is described below.
Step 2 of the differentiation protocol was carried out over two days. Cells were fed daily by aspirating the medium from each well and replacing with a fresh aliquot (0.5 ml) of DMEM:F12 medium (Invitrogen; Cat #11330-032) containing 2% FAF BSA, 50 ng/ml FGF7 (PeproTech; Cat #100-19), and 250 nM cyclopamine-KAAD (Calbiochem; Cat #239804).
Step 3 of the differentiation protocol was carried out over four days. […]

[1] = Step 5, cells harvested at end of step, treatment given during step one

Activin A: recombinant human activin A (PeproTech), TGF-beta family member
RT-PCR CT Values AFP (Step 1): 32.8 | RT-PCR CT Values CD9 (Step 1): 25.2 | RT-PCR CT Values CD99 (Step 1): 24.0 | RT-PCR CT Values CDH (Step 1): 21.8 | RT-PCR CT Values CDH1 (Step 1): 26.1 | RT-PCR CT Values CDX2 (Step 1): 36.0 | RT-PCR CT Values CER1 (Step 1): 18.3 | RT-PCR CT Values CXCR4 (Step 1): 20.4 | RT-PCR CT Values FGF4 (Step 1): 34.0 | RT-PCR CT Values FGF17 (Step 1): 20.7 | RT-PCR CT Values FOXA2 (Step 1): 25.1 | RT-PCR CT Values GAPDH (Step 1): 19.4 | RT-PCR CT Values GATA4 (Step 1): 25.0 | RT-PCR CT Values GATA6 (Step 1): 22.9 | RT-PCR CT Values GSC (Step 1): 22.4 | RT-PCR CT Values HLXB9 (Step 1): 24.8 | RT-PCR CT Values KIT (Step 1): 22.7 | RT-PCR CT Values MIXL1 (Step 1): 28.9 | RT-PCR CT Values NANOG (Step 1): 24.1 | RT-PCR CT Values OTX2 (Step 1): 22.5 | RT-PCR CT Values POU5F1 (Step 1): 32.2 | RT-PCR CT Values SOX7 (Step 1): 32.3 | RT-PCR CT Values SOX17 (Step 1): 21.6 | RT-PCR CT Values T (Step 1): 36.1 | RT-PCR CT Values ALB (Step 3): 26.9 | RT-PCR CT Values AMY2A (Step 3): 30.6 | RT-PCR CT Values ARX (Step 3): 32.0 | RT-PCR CT Values CDX2 (Step 3): 22.9 | RT-PCR CT Values GAPDH (Step 3): 18.5 | RT-PCR CT Values GCG (Step 3): 34.1 | RT-PCR CT Values HNF4A (Step 3): 22.4 | RT-PCR CT Values INS (Step 3): 34.8 | RT-PCR CT Values ISL1 (Step 3): 29.3 | RT-PCR CT Values MAFA (Step 3): 36.4 | RT-PCR CT Values MAFB (Step 3): 27.4 | RT-PCR CT Values NEUROD1 (Step 3): 30.1 | RT-PCR CT Values NEUROG3 (Step 3): 28.0 | RT-PCR CT Values NKX2-2 (Step 3): 29.3 | RT-PCR CT Values NKX2-5 (Step 3): 34.6 | RT-PCR CT Values NKX6-1 (Step 3): 32.2 | RT-PCR CT Values PAX4 (Step 3): 31.4 | RT-PCR CT Values PAX6 (Step 3): 40.0 | RT-PCR CT Values PDX1 (Step 3): 23.3 | RT-PCR CT Values PECAM (Step 3): 31.0 | RT-PCR CT Values POU3F4 (Step 3): 30.5 | RT-PCR CT Values PTF1A (Step 3): 34.6 | RT-PCR CT Values SST (Step 3): 33.2 | RT-PCR CT Values ZIC1 (Step 3): 34.8 | RT-PCR CT Values ALB (Step 4): 22.4 | RT-PCR CT Values AMY2A (Step 4): 28.6 | RT-PCR CT Values ARX (Step 4): 23.9 | RT-PCR CT Values CDX2 (Step 4): 23.7 | RT-PCR CT Values GAPDH (Step 4): 19.0 | RT-PCR CT Values GCG (Step 4): 22.8 | RT-PCR CT Values HNF4A (Step 4): 22.1 | RT-PCR CT Values INS (Step 4): 23.6 | RT-PCR CT Values ISL1 (Step 4): 24.1 | RT-PCR CT Values MAFA (Step 4): 30.6 | RT-PCR CT Values MAFB (Step 4): 23.5 | RT-PCR CT Values NEUROD1 (Step 4): 23.7 | RT-PCR CT Values NEUROG3 (Step 4): 23.3 | RT-PCR CT Values NKX2-2 (Step 4): 24.0 | RT-PCR CT Values NKX2-5 (Step 4): 31.9 | RT-PCR CT Values NKX6-1 (Step 4): 27.4 | RT-PCR CT Values PAX4 (Step 4): 25.7 | RT-PCR CT Values PAX6 (Step 4): 27.1 | RT-PCR CT Values PDX1 (Step 4): 23.7 | RT-PCR CT Values PECAM (Step 4): 29.8 | RT-PCR CT Values POU3F4 (Step 4): 26.5 | RT-PCR CT Values PTF1A (Step 4): 29.6 | RT-PCR CT Values SST (Step 4): 24.3 | RT-PCR CT Values ZIC1 (Step 4): 32.5 | RT-PCR CT Values ALB (Step 5): 20.2 | RT-PCR CT Values AMY2A (Step 5): 27.6 | RT-PCR CT Values ARX (Step 5): 22.0 | RT-PCR CT Values CDX2 (Step 5): 23.4 | RT-PCR CT Values GAPDH (Step 5): 18.3 | RT-PCR CT Values GCG (Step 5): 14.1 | RT-PCR CT Values HNF4A (Step 5): 21.3 | RT-PCR CT Values INS (Step 5): 14.9 | RT-PCR CT Values ISL1 (Step 5): 22.4 | RT-PCR CT Values MAFA (Step 5): 31.8 | RT-PCR CT Values MAFB (Step 5): 22.2 | RT-PCR CT Values NEUROD1 (Step 5): 22.8 | RT-PCR CT Values NEUROG3 (Step 5): 28.1 | RT-PCR CT Values NKX2-2 [1]: 23.7 CT | RT-PCR CT Values NKX2-5 [1]: 34.1 CT | RT-PCR CT Values NKX6-1 [1]: 25.5 CT | RT-PCR CT Values PAX4 [1]: 27.3 CT | RT-PCR CT Values PAX6 [1]: 24.0 CT | RT-PCR CT Values PDX1 [1]: 23.2 CT | RT-PCR CT Values PECAM [1]: 30.1 CT | RT-PCR CT Values POU3F4 [1]: 28.8 CT | RT-PCR CT Values PTF1A [1]: 27.3 CT | RT-PCR CT Values SST [1]: 19.6 CT | RT-PCR CT Values ZIC1 [1]: 34.4 CT
